Target: T1, cytosolic NADP-ME2 (recombinant Arabidopsis NADP-malic enzyme 2) (Arabidopsis thaliana, UniProt Q9LYG3)
T1 construct: full-length cDNA (1785 bp PCR product) in pALEXb; E. coli
T1 sequence (Q9LYG3 1-588): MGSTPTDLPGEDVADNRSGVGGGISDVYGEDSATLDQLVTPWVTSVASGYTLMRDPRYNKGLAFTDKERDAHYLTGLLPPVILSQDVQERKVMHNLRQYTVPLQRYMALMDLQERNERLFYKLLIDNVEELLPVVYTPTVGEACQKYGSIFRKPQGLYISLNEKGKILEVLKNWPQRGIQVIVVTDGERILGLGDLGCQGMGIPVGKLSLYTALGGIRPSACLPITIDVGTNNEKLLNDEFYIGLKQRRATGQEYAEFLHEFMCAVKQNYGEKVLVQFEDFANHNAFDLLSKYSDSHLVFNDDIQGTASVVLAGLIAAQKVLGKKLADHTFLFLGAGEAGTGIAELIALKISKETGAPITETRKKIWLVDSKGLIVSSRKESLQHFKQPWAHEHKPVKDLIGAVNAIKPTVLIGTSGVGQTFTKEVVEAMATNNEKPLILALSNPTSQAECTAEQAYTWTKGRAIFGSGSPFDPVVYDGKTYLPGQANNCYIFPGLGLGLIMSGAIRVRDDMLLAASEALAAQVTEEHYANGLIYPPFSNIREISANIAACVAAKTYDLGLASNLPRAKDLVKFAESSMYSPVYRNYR
Test: spectrophotometric NADP reduction at […] nm after preincubation with peroxynitrite donor
Type: biochemical
Details: covalent (Tyr-73 nitration); peroxynitrite generated in situ from donor SIN-1, so concentration is that of the donor; 37 °C, 1 h preincubation; assay pH 7.6, 25 °C, 2 mM MgCl2, 0.8 mM NADP, 1 mM L-mal

- % inhibition with 5 mM SIN-1 (donor): 56%
Substance: ONOO^−
